Data reported in EP4763845A1, “CYANO AROMATIC RING DERIVATIVE AND PHARMACEUTICAL USE THEREOF” (Haisco Pharmaceutical Group Co., Ltd., priority 2023, dated 2025).
Like-named read-outs stand apart in the source and are kept apart here.

Key:
Assay type in all cases: cell-based
[1] = target: T1, AR protein (Homo sapiens, UniProt P10275); experiment: Detection of AR degradation in VCaP cells (automated western blot); conditions: for DC50: degradation of AR protein in VCaP cells, 24 hours incubation, read-out: DC50; for Degradation rate %: AR protein in VCaP cells, concentration of 30 nM, 24 hours
T1 construct: VCap is a human prostate cancer cell line purchased from ATCC; host or cells: VCaP human prostate cancer cells
T1 sequence (P10275 1-920): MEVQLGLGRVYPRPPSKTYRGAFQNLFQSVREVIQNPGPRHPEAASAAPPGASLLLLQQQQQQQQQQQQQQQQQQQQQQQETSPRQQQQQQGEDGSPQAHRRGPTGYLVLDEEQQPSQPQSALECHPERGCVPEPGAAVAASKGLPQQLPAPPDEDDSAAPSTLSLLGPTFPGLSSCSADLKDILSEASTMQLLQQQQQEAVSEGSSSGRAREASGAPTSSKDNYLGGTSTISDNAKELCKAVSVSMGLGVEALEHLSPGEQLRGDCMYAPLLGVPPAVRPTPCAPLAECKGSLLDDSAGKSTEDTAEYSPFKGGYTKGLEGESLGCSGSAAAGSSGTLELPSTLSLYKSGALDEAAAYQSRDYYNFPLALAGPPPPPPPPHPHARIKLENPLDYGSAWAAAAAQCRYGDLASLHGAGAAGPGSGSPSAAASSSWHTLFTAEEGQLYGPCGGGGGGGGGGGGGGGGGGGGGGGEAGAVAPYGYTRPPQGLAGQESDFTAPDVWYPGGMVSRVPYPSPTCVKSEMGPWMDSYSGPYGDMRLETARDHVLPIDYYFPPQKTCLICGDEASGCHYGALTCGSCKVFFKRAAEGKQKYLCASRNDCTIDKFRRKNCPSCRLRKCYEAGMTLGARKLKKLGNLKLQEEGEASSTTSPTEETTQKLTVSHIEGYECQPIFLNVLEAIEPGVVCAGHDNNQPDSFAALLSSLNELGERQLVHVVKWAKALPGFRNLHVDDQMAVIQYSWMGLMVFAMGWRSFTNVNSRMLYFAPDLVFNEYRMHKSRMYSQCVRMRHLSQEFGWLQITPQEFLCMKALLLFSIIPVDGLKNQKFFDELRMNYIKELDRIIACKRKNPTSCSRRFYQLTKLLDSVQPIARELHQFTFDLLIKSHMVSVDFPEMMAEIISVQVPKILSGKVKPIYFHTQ
Procedure: VCap is a human prostate cancer cell line purchased from ATCC and cultured under the following conditions: DMEM + 10% FBS + 1% penicillin-streptomycin solution. The cells were cultured in a 37°C, 5% CO2 incubator. The cells were seeded in a 6-well plate, with 5 × 10^5 cells/well. After seeding, compounds at various concentrations were added, and the plate was incubated for 24 hours in the 37°C, 5% CO2 incubator. Following incubation, the cells were harvested and RIPA lysis buffer (beyotime, Cat. P0013B) was added. The cells were lysed on ice for 15 minutes and centrifuged at 12,000 rpm at 4°C for 10 minutes. The supernatant protein samples were collected and the protein was quantified using the BCA kit (Beyotime, Cat. P0009). Then the protein was diluted to 0.25 mg/mL. The expressions of AR (CST, Cat.5153S) and the internal reference β-actin (CST, Cat. 3700S) were detected using a fully automated western blot quantitative analyser (Proteinsimple). Using the "Compass for SW" software, the relative peak area of AR was calculated when the internal reference area was 10,000. The proportion of AR relative to the solvent control group at various drug concentrations was calculated according to Equation (1), where ARtreat represents the relative peak area of the compound-treated group, and ARsolvent represents the relative peak area of the solvent control group. The processed data obtained from Equation (1) were analysed using GraphPad Prism 8.3.0 software, and the DC50 value was calculated using a four-parameter nonlinear regression model. The degradation rate at a specified concentration was determined as 100-AR%. AR% = ARtreat/ ARsolvent × 100% [formula]

[2] = target: T2, hERG potassium channel (Homo sapiens, UniProt Q12809); experiment: hERG potassium ion channel test (manual patch-clamp, CHO cells)
T2 construct: expressed in transfected cells; host or cells: CHO cells stably expressing hERG
Text: Experimental platform: Electrophysiological manual patch-clamp system
Cell line: Chinese hamster ovary (CHO) cell lines stably expressing hERG potassium ion channel
Experimental method: In Chinese Hamster Ovary (CHO) cells stably expressing hERG potassium channel, whole cell patch-clamp technique was used to record hERG potassium channel current at room temperature. The glass microelectrode was made of a glass electrode blank (BF150-86-10, Sutter) by a puller. The tip resistance after filling the liquid in the electrode was about 2-5 MΩ. The glass microelectrode can be connected to the patch-clamp amplifier by inserting the glass microelectrode into an amplifier probe. The clamping voltage and data recording were controlled and recorded by the pClamp 10 software through a computer. The sampling frequency was 10 kHz, and the filtering frequency was 2 kHz. After the whole cell records were obtained, the cells were clamped at -80 mV, and the step voltage that induced the hERG potassium current (I hERG) was depolarised from -80 mV to +20 mV for 2 s, then repolarised to -50 mV, and returned to -80 mV after 1 s. This voltage stimulation was given every 10 s, and the administration process was started after the hERG potassium current was confirmed to be stable (at least 1 minute). The compound was administered for at least 1 minute at each test concentration, and at least 2 cells (n ≥ 2) were tested at each concentration.
Data processing: Data analysis processing was carried out by using pClamp 10, GraphPad Prism 5 and Excel software.
Compound IC50 was calculated using GraphPad Prism 5 software by fitting according to the following equation: Y = Bottom + (Top−Bottom)/(1+10^(∧)((LogIC50−X)*HillSlope)) [formula] where X represents the Log value of the tested concentration of the test sample, Y represents the inhibition percentage at the corresponding concentration, and Bottom and Top represent the minimum and maximum inhibition percentage, respectively.

[3] = tested on: VCaP cells; experiment: VCaP cell proliferation inhibition experiment (CellTiter-Glo); conditions: Homo sapiens, 168 h
Procedure: After centrifugation and resuspension, viable cell counting was performed using a Vi-Cell XR cell counter. […] Then, 180 µl of the cell suspension was added per well to a 96-well cell culture plate at a cell density of 7,500 cells/well. At the time of seeding, T0 wells were also prepared. The following day, R1881 at a final concentration of 0.1 nM and compounds at various concentrations were added. The plate was placed back into the incubator and cultured for an additional 7 days. At the time of compound addition, the T0 plate was measured using the CellTiter-Glo (CTG) kit (Promega, Cat. No. G7572) and recorded as RLU0. Following incubation, 75 µl of pre-thawed and room temperature-equilibrated CellTiter-Glo solution was added to each well. […] The results were processed according to Equation (2). […] Growth% = (RLUcompound−RLU0)/(RLUcontrol−RLU0) × 100% [formula]

[4] = chinese hamster, inhibitory activity against hERG potassium channel current, CHO cells, whole cell patch-clamp, read-out: IC50

T2 sequence (Q12809 whole entry): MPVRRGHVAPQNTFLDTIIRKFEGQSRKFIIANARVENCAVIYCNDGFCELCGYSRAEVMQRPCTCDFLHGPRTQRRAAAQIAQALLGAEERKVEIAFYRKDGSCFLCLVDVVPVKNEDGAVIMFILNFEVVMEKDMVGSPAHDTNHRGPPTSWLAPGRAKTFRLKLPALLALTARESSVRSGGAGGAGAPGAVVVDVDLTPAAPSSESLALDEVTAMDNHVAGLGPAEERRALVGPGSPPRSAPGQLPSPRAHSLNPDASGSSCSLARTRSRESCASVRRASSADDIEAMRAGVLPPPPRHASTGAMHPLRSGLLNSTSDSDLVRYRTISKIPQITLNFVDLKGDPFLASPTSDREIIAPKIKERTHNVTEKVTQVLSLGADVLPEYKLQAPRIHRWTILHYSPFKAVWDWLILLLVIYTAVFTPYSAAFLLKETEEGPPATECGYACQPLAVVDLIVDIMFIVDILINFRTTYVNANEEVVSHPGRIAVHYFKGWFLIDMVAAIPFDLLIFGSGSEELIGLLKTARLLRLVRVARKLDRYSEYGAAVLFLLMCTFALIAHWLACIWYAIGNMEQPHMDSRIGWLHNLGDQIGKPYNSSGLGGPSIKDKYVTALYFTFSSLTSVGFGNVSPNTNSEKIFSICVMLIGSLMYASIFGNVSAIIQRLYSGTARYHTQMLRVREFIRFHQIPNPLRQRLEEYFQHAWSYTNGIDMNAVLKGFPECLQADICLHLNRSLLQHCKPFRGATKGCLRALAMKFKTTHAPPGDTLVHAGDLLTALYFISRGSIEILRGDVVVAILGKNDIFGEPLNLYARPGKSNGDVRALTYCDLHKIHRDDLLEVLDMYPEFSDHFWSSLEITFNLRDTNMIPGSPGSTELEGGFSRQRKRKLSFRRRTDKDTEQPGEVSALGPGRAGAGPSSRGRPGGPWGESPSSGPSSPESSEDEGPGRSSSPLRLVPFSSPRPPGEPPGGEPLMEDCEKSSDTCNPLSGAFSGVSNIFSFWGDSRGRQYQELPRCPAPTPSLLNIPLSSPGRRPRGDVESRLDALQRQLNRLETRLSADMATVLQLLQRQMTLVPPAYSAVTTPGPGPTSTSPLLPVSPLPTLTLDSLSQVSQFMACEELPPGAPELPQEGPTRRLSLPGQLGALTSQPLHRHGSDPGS

| SMILES | DC50 [1] [nM] | GI50 [3] [nM] | other results |
| --- | --- | --- | --- |
| COc1cc(O[C@H]2C(C)(C)[C@H](NC(=O)c3ccc(N4CCC(CN5CCN6c7cc(F)c(C(=O)NC8CCC(=O)NC8=O)cc7CC[C@H]6C5)CC4)cc3)C2(C)C)ccc1C#N (stereo partly drawn) [Trifluoroacetate of compound 3] | < 100 |  | IC50 [2, 4]: > 40000 nM |
| CC1(C)[C@H](NC(=O)c2ccc(N3CCC(CN4CCN5c6cc(F)c(N7CCC(=O)NC7=O)cc6CC[C@H]5C4)CC3)cc2)C(C)(C)[C@H]1Oc1ccc(C#N)c2ncccc12 [Trifluoroacetate of compound 33] | < 100 | < 500 |  |
| COc1cc(O[C@H]2C(C)(C)[C@H](NC(=O)c3ccc(N4CCC(CN5CCN6c7cc(F)c(C8CCC(=O)NC8=O)cc7CC[C@H]6C5)CC4)cc3)C2(C)C)ccc1C#N (stereo partly drawn) [Trifluoroacetate of compound 1] | < 100 |  | IC50 ([2]; chinese hamster, cho cells): > 40000 nM |
| CC1(C)[C@H](NC(=O)c2ccc(N3CCC(CN4CCN5c6cc(F)c(C7CCC(=O)NC7=O)cc6CC[C@H]5C4)CC3)cc2)C(C)(C)[C@H]1Oc1ccc(C#N)c(C2CC2)c1 (stereo partly drawn) [Compound 118] |  |  | Degradation rate % [1]: >70%; IC50 ([2]; inhibitory activity against hERG potassium channel current, CHO cells, whole cell patch-clamp, read-out: IC50): > 40000 nM |
| [2H]C([2H])([2H])Oc1cc(O[C@H]2C(C)(C)[C@H](NC(=O)c3ccc(N4CCC(CN5CCN6c7cc(F)c(C8CCC(=O)NC8=O)cc7CC[C@H]6C5)CC4)cc3)C2(C)C)ccc1C#N (stereo partly drawn) [Compound 37] | < 100 | < 300 |  |
| COc1cc(O[C@H]2C(C)(C)[C@H](NC(=O)c3ccc(N4CCC(CN5CCN6c7cc(F)c(C(=O)NC8CCC(=O)NC8=O)cc7CC[C@@H]6C5)CC4)cc3)C2(C)C)ccc1C#N (stereo partly drawn) [Trifluoroacetate of compound 4] | < 100 |  | IC50 [2, 4]: > 40000 nM |
| [2H]C([2H])([2H])Oc1cc(O[C@H]2C(C)(C)[C@H](NC(=O)c3ccc(N4CCC(CN5CCN6c7cc(F)c(C(=O)N[C@H]8CCC(=O)NC8=O)cc7CC[C@@H]6C5)CC4)nn3)C2(C)C)ccc1C#N [Compound 87] |  | < 500 |  |
| [2H]C([2H])([2H])Oc1cc(O[C@H]2C(C)(C)[C@H](NC(=O)c3ccc(N4CCC(CN5CCN6c7cc(F)c(C(=O)N[C@H]8CCC(=O)NC8=O)cc7CC[C@@H]6C5)CC4)cc3)C2(C)C)ccc1C#N [Compound 40] | < 100 | < 300 |  |
| CC1(C)[C@H](NC(=O)c2ccc(N3CCC(CN4CCN5c6cc(F)c(C(=O)N[C@H]7CCC(=O)NC7=O)cc6CC[C@H]5C4)CC3)cc2)C(C)(C)[C@H]1Oc1ccc(C#N)c2ncccc12 [Compound 35] | < 100 |  | IC50 [2, 4]: > 40000 nM |
| [2H]C([2H])([2H])Oc1cc(O[C@H]2C(C)(C)[C@H](NC(=O)c3ccc(N4CCC5(CC4)CC(N4CCN6c7cc(F)c(N8CCC(=O)NC8=O)cc7CC[C@@H]6C4)C5)cc3)C2(C)C)ccc1C#N [Compound 94] |  | < 300 |  |
| COc1cc(O[C@H]2C(C)(C)[C@H](NC(=O)c3ccc(N4CCC(CN5CCN6c7cc(F)c(N8CCC(=O)NC8=O)cc7CC[C@@H]6C5)CC4)cc3)C2(C)C)ccc1C#N [Compound 28] |  |  | IC50 [2]: > 40000 nM |
| [2H]C([2H])([2H])Oc1cc(O[C@H]2C(C)(C)[C@H](NC(=O)c3ccc(N4CCC(CN5CCN6c7cc(F)c(C8CCC(=O)NC8=O)cc7CC[C@H]6C5)CC4)nn3)C2(C)C)ccc1C#N (stereo partly drawn) [Compound 86] |  | < 300 |  |
| COc1cc(O[C@H]2C(C)(C)[C@H](NC(=O)c3ccc(N4CCC(N5CCN6c7cc(F)c(C(=O)N[C@@H]8CCC(=O)NC8=O)cc7CC[C@H]6C5)CC4)cc3)C2(C)C)ccc1C#N [Trifluoroacetate of compound 25] | < 100 |  |  |
| CC#CCOc1cc(O[C@H]2C(C)(C)[C@H](NC(=O)c3ccc(N4CCC(CN5CCN6c7cc(F)c(C(=O)N[C@H]8CCC(=O)NC8=O)cc7CC[C@@H]6C5)CC4)cc3)C2(C)C)ccc1C#N [Trifluoroacetate of compound 99] |  |  | Degradation rate % [1]: >70% |
| CC1(C)[C@H](NC(=O)c2ccc(N3CCC(CN4CCN5c6cc(F)c(C7CCC(=O)NC7=O)cc6CC[C@@H]5C4)CC3)cc2)C(C)(C)[C@H]1Oc1ccc(C#N)c(Cl)c1 (stereo partly drawn) [Compound 48] | < 100 |  |  |
| CC1(C)[C@H](NC(=O)c2ccc(N3CCC(CN4CCN5c6cc(F)c(C(=O)N[C@H]7CCC(=O)NC7=O)cc6CC[C@@H]5C4)CC3)cc2)C(C)(C)[C@H]1Oc1ccc(C#N)c(Cl)c1 [Compound 52] |  | < 300 |  |
